Assay results reported in patent EP0009776A1, “N-monohydroxypropylamides, N-dihydroxypropylamides and their acetonoides of all-E and 13-Z retinoic acid, process for their preparation and pharmaceutical compositions containing them” (BASF Aktiengesellschaft, priority 1978, dated 1980).

Tested on: Hamster-Tracheen-Gewebe
Assay: Reversal of keratinization induced by vitamin A deficiency in hamster tracheal tissue (method of Clamon et al. / Sporn et al.)
Type: cell-based
Conditions: in 10^-8 molarer Lösung
Excerpt: Die erfindungsgemäßen Verbindungen sind in ihrer biologischen Aktivität den bekannten Retinsäureamiden der DE-OS 21 02 586 in etwa vergleichbar. Beispielsweise hebsowohl Retinsäure-N-(ß-hydroxy)-ethylamid als auch die erfindungsgemäßen Retinoide die durch Vitamin A-Hypovitamines induzierte Keratinisierung von Hamster-Tracheen-Gewebe noch in 10^-8 molarer Lösung vollständig auf. Die Methodik hierzu kann G.H. CLAMON et al Nature 250, 64 - 66 (1974) oder M.B. SPORN et al Nature 253, 47 - 50 (1975) entnommen werden. Die Keratinisierung wird als praekanzerotischer Prozes angesehen.

## CC1=C(/C=C/C(C)=C/C=C/C(C)=C/C(=O)NCCO)C(C)(C)CCC1 [Retinsäure-N-(ß-hydroxy)-ethylamid]
  Aufhebung der durch Vitamin A-Hypovitamines induzierten Keratinisierung von Hamster-Tracheen-Gewebe: vollständig
